Laboratory results: ChEMBL document CHEMBL3228010, “Potential antitumor agents. 29. Quantitative structure-activity relationships for the antileukemic bisquaternary ammonium heterocycles” (J Med Chem, 1979)

Key:
[1] = test system: L1210; assay: Antitumor activity against mouse L1210 cells […] in ip dosed C3H X DBA2 F1 hybrid mouse on day 0 and dosed at LD10 level once daily on days 1 to 5 assessed as increase in life span relative to control; assay type: functional
[2] = organism: Bos taurus; assay: Displacement of ethidium from calf thymus DNA by fluorimetric method
[3] = test system: Mus musculus; assay: Toxicity in ip dosed C3H X DBA2 F1 hybrid mouse […] with mouse L1210 cells on day 0 and dosed once daily on days 1 to 5 measured after 50 days; assay type: organism-based; conditions: in vivo, 1200 h
[4] = test system: L1210; assay: Antitumor activity against mouse L1210 cells […] in ip dosed C3H X DBA2 F1 hybrid mouse on day 0 and dosed once daily on days 1 to 5 assessed as increase in life span relative to control; assay type: functional
[5] = Lipophilic-hydrophilic balance, Rm of the compound by partition chromatography; assay type: physicochemical
[6] = Displacement of ethidium from poly[d(A-T)]-poly[d(A-T)] DNA by fluorimetric method
[7] = Displacement of ethidium from poly[d(G-C)]-poly[d(G-C)] DNA (unknown origin) by fluorimetric method

Structure (SMILES)	log(ILSmax) [1]	C50 [2]	LD10 [3]	D40 [4]	Rm [5]	C50 [6]	C50 [7]
C[n+]1ccc(Nc2ccc(NC(=O)/C=C/c3ccc(/C=C/C(=O)Nc4ccc(Nc5cc[n+](C)cc5)cc4)cc3)cc2)cc1.Cc1ccc(S(=O)(=O)[O-])cc1.Cc1ccc(S(=O)(=O)[O-])cc1	1.88	0.31 µM	10 mg/kg	5.1 mg/kg	-0.7	0.11 µM	0.38 µM
Cc1c(C(=O)Nc2ccc(C(=O)Nc3ccc[n+](C)c3)cc2)ccc(C(=O)Nc2ccc(C(=O)Nc3ccc[n+](C)c3)cc2)c1C.Cc1ccc(S(=O)(=O)[O-])cc1.Cc1ccc(S(=O)(=O)[O-])cc1	1.65	6.9 µM	19 mg/kg	14.7 mg/kg	0.47	5.4 µM	12 µM
C[n+]1ccc(Nc2ccc(NC(=O)c3ccc(Nc4cc[n+](C)c5cc(Cl)ccc45)cc3)cc2)cc1.[Br-].[Br-]	1.97	1 µM	39 mg/kg	12 mg/kg	0.31	0.21 µM	2.27 µM
C[n+]1cccc(NC(=O)c2ccc(NC(=O)c3ccc(C(=O)Nc4ccc(C(=O)Nc5ccc[n+](C)c5)cc4Cl)cc3)c(Cl)c2)c1.Cc1ccc(S(=O)(=O)[O-])cc1.Cc1ccc(S(=O)(=O)[O-])cc1	1.6	1.3 µM	50 mg/kg	50 mg/kg	0.36	1.3 µM	1.5 µM
C[n+]1ccc(Nc2ccc(/C=C/c3ccc(Nc4cc[n+](C)c5ccc(N)cc45)cc3)cc2)cc1.[Br-].[Br-]	2.19	0.38 µM	16 mg/kg	1.8 mg/kg	0.31	0.15 µM	0.53 µM
C[n+]1cccc(NC(=O)c2ccc(NC(=O)c3ccc(C(=O)Nc4ccc(C(=O)Nc5ccc[n+](C)c5)c(N)c4)cc3N)cc2)c1.Cc1ccc(S(=O)(=O)[O-])cc1.Cc1ccc(S(=O)(=O)[O-])cc1	2.32	0.39 µM	9 mg/kg	1.4 mg/kg	-0.7	0.15 µM	0.54 µM
COc1ccc2c(c1)c(Nc1ccc(C(=O)Nc3ccc(Nc4cc[n+](C)cc4)cc3)cc1)cc[n+]2C.Cc1ccc(S(=O)(=O)[O-])cc1.Cc1ccc(S(=O)(=O)[O-])cc1	2.2	0.68 µM	50 mg/kg	1.5 mg/kg	0.46	0.19 µM	1.15 µM
Br.C/C(=N\NC(=N)N)c1ccc(NC(=O)c2ccc(Nc3cc[n+](C)c4ccc(N)cc34)cc2)cc1.[Br-]	2.31	0.4 µM	28 mg/kg	2.1 mg/kg	-0.45	0.11 µM	0.5 µM
Cc1cc(C(=O)Nc2ccc(C(=O)Nc3ccc[n+](C)c3)cc2)ccc1C(=O)Nc1ccc(C(=O)Nc2ccc[n+](C)c2)cc1.Cc1ccc(S(=O)(=O)[O-])cc1.Cc1ccc(S(=O)(=O)[O-])cc1	2.09	1.2 µM	14 mg/kg	5.7 mg/kg	0.06	1 µM	2.4 µM
C[n+]1ccc(-c2ccc(-c3ccc(-c4ccc(/N=N/Nc5ccc(C(=O)Nc6ccc(-c7ccc(-c8ccc(-c9cc[n+](C)cc9)cc8)cc7)cc6)cc5)cc4)cc3)cc2)cc1.Cc1ccc(S(=O)(=O)[O-])cc1.Cc1ccc(S(=O)(=O)[O-])cc1	2.34	0.83 µM	6 mg/kg	1.4 mg/kg	-0.22	0.1 µM	0.38 µM
C[n+]1cccc(NC(=O)c2ccc(NC(=O)c3ccc(C(=O)Nc4ccc(C(=O)Nc5ccc[n+](C)c5)cc4)c4ccccc34)cc2)c1.Cc1ccc(S(=O)(=O)[O-])cc1.Cc1ccc(S(=O)(=O)[O-])cc1	1.84	1.5 µM	140 mg/kg	54.5 mg/kg	0.45	1.1 µM	2.7 µM
C[n+]1cccc(NC(=O)c2ccc(NC(=O)c3ccc(C(=O)Nc4ccc(C(=O)Nc5ccc[n+](C)c5)c(N)c4)cc3)cc2N)c1.Cc1ccc(S(=O)(=O)[O-])cc1.Cc1ccc(S(=O)(=O)[O-])cc1	2.35	0.26 µM	44 mg/kg	2.4 mg/kg	-0.75	0.12 µM	0.39 µM
CCC[n+]1ccc(Nc2ccc(NC(=O)c3ccc(Nc4cc[n+](CCC)c5ccccc45)cc3)cc2)cc1.[Br-].[Br-]	1.81	2.3 µM	15 mg/kg	8.8 mg/kg	0.74	0.2 µM	3 µM
C[n+]1ccc(Nc2ccc(NC(=O)c3ccc(Nc4cc[n+](C)c5ccc(Cl)cc45)cc3)cc2)cc1.Cc1ccc(S(=O)(=O)[O-])cc1.Cc1ccc(S(=O)(=O)[O-])cc1	1.81	0.79 µM	40 mg/kg	14 mg/kg	0.57	0.24 µM	1.76 µM
C[n+]1ccc(Nc2ccc(NC(=O)Nc3ccc(Nc4cc[n+](C)c5ccc(N)cc45)cc3)cc2)cc1.Cc1ccc(S(=O)(=O)[O-])cc1.Cc1ccc(S(=O)(=O)[O-])cc1	1.74	0.51 µM	6 mg/kg	3 mg/kg	0.17	0.28 µM	1.2 µM
COc1cc(NC(=O)c2ccc(Nc3cc[n+](C)cc3)cc2)ccc1Nc1cc[n+](C)c2cc(N)ccc12.[Br-].[Br-]	2.23	0.69 µM	14 mg/kg	3 mg/kg	0.14	0.15 µM	1.18 µM
C[n+]1cc(-c2ccc(NC(=O)c3ccc(Nc4cc[n+](C)c5ccc(N)cc45)cc3N)cc2)c(N)nc1N.Cc1ccc(S(=O)(=O)[O-])cc1.Cc1ccc(S(=O)(=O)[O-])cc1	2.41	0.62 µM	75 mg/kg	4.4 mg/kg	-0.25	0.11 µM	1.08 µM
CC(=O)Nc1ccc2c(Nc3ccc(NC(=O)c4ccc(Nc5cc[n+](C)cc5)cc4)cc3)cc[n+](C)c2c1.Cc1ccc(S(=O)(=O)[O-])cc1.Cc1ccc(S(=O)(=O)[O-])cc1	2.26	0.34 µM	97 mg/kg	10 mg/kg	-0.1	0.13 µM	0.53 µM
C[n+]1ccc(-c2ccc(-c3ccc(-c4ccc(NC(=O)c5ccc(C(=O)Nc6ccc(-c7ccc(-c8ccc(-c9cc[n+](C)cc9)cc8)cc7)cc6)cc5)cc4)cc3)cc2)cc1.Cc1ccc(S(=O)(=O)[O-])cc1.Cc1ccc(S(=O)(=O)[O-])cc1	2.28	0.55 µM	110 mg/kg	22 mg/kg	-0.3	0.4 µM	1.15 µM
C[n+]1ccc(Nc2ccc(NC(=O)/C=C/c3ccc(C(=O)Nc4ccc(Nc5cc[n+](C)cc5)cc4)cc3)cc2)cc1.Cc1ccc(S(=O)(=O)[O-])cc1.Cc1ccc(S(=O)(=O)[O-])cc1	2.28	0.43 µM	11 mg/kg	4.2 mg/kg	-0.34	0.14 µM	0.51 µM
